US6534542B2, “(2-hydroxy)ethyl-thioureas useful as modulators of α2B adrenergic receptors” (Allergen Sales, Inc., priority 2001, dated 2003)

Assays:
alpha2C receptor = molecular target: T1, alpha2C receptor (Homo sapiens, UniProt P18825); test: Receptor Selection and Amplification Technology (RSAT) assay, alpha2C; format: cell-based; details: NIH-3T3 cells; for EC50: NA = not active at concentrations less than 10 micromolar, read-out: RSAT EC50 (nM) Alpha 2C; for fraction of activity of the standard (brimonidine) attained, Alpha 2C (number in parenthesis): ratio of maximal effect to that of standard full agonist brimonidine
T1 construct: expressed in transfected cells; host or cells: NIH-3T3
T1 sequence (P18825 1-462): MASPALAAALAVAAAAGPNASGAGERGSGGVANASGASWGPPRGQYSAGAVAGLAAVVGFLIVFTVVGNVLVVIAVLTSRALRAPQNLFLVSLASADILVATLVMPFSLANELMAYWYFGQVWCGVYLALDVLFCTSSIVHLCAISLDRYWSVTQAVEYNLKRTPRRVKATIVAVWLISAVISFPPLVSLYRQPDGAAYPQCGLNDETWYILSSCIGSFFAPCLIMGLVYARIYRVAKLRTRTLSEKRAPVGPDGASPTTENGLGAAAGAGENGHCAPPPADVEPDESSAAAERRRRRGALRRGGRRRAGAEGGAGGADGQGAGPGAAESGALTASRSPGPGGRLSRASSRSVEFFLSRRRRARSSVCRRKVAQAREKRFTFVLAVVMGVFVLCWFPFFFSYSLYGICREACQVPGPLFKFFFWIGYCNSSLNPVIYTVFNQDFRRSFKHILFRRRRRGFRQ
Excerpt: (§1) The compounds of the invention are agonists of α2 adrenergic receptors, particularly they tend to be specific or selective agonists of α2B and/or to a lesser extent α2C adrenergic receptors, in preference over α2A adrenergic receptors. […] Al., 1995, Pharmacol. Toxicol. 76, pp. 308-311 (incorporated herein by reference) and is also described below. Another reference pertinent to this assay is Conklin et al. (1993) Nature 363:274-6, also incorporated herein by reference.
(§2) The RSAT assay measures a receptor-mediated loss of contact inhibition that results in selective proliferation of receptor-containing cells in a mixed population of confluent cells. The increase in cell number is assessed with an appropriate transfected marker gene such as β-galactosidase, the activity of which can be easily measured in a 96-well format. Receptors that activate the G protein, Gq, elicit this response. Alpha2 receptors, which normally couple to Gi, activate the RSAT response when coexpressed with a hybrid Gq protein that has a Gi receptor recognition domain, called Gq/i5^2.
(§3) NIH-3T3 cells are plated at a density of 2×10^6 cells in 15 cm dishes and maintained in Dulbecco's modified Eagle's medium supplemented with 10% calf serum. One day later, cells are cotransfected by calcium phosphate precipitation with mammalian expression plasmids encoding p-SV-β-galactosidase (5-10 μg), receptor (1-2 μg) and G protein (1-2 μg). 40 μg salmon sperm DNA may also be included in the transfection mixture. Fresh media is added on the following day and 1-2 days later, cells are harvested and frozen in 50 assay aliquots. Cells are thawed and 100 μl added to 100 μl aliquots of various concentrations of drugs in triplicate in 96-well dishes. Incubations continue 72-96 hr at 37°. After washing with phosphate-buffered saline, β-galactosidase enzyme activity is determined by adding 200 μl of the chromogenic substrate (consisting of 3.5 mM o-nitrophenyl-β-D-galactopyranoside and 0.5% nonidet P-40 in phosphate buffered saline), incubating overnight at 30 and measuring optical density at 420 nm. The absorbance is a measure of enzyme activity, which depends on cell number and reflects a receptor-mediated cell proliferation. The EC50 and maximal effect of each drug at each alpha2 receptor is determined. The efficacy or intrinsic activity is calculated as a ratio of the maximal effect of the drug to the maximal effect of a standard full agonist for each receptor subtype. Brimonidine, also called […], the chemical structure of which is shown below, is used as the standard agonist for the alpha2A, alpha2B and alpha2C receptors. [drawing 6]
(§4) The results of the RSAT assay with several exemplary compounds of the invention are disclosed in Table 3. […] NA stands for “not active” at concentrations less than 10 micromolar. As is known EC50 is the concentration at which half of a given compound's maximal activity is observed. It can be seen from the table that the compounds of the invention are specific or selective agonists of α2B and/or α2C adrenergic receptors, with no agonist like activity or only with insignificant agonist-like activity on α2A receptors.

alpha2B receptor = molecular target: T2, alpha2B receptor (Homo sapiens, UniProt P18089); test: Receptor Selection and Amplification Technology (RSAT) assay, alpha2B; format: cell-based; details: NIH-3T3 cells; for EC50: NA = not active at concentrations less than 10 micromolar, read-out: RSAT EC50 (nM) Alpha 2B; for fraction of activity of the standard (brimonidine) attained, Alpha 2B (number in parenthesis): ratio of maximal effect to that of standard full agonist brimonidine
T2 construct: expressed in transfected cells; host or cells: NIH-3T3
T2 sequence (P18089 1-450): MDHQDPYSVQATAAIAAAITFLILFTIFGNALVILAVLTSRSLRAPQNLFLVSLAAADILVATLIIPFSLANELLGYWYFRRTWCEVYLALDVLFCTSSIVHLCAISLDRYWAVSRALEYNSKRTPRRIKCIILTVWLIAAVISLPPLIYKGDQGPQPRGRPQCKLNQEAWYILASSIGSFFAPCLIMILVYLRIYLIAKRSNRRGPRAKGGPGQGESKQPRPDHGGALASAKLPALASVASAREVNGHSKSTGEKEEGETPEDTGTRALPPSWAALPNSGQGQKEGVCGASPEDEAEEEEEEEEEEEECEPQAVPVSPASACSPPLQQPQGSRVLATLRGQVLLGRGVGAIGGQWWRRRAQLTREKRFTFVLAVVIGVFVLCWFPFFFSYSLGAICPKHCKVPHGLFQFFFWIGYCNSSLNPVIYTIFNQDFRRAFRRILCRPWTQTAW
Excerpt: as §1, §2, §3, §4

[1] = system: rats with ligated L5 and L6 spinal nerves; test: Alleviation of chronic pain: tactile allodynia after L5/L6 spinal nerve ligation (von Frey hairs); format: in vivo, rat; details: 30 minutes after administration, ±SEM
Excerpt: A model for chronic pain (in particular peripheral neuropathy such as causalgia) involves the surgical ligation of the L5 (and optionally the L6) spinal nerves on one side in experimental animals. Rats recovering from the surgery gain weight and display a level of general activity similar to that of normal rats. However, these rats develop abnormalities of the foot, wherein the hindpaw is moderately everted and the toes are held together. More importantly, the hindpaw on the side affected by the surgery appears to become sensitive to pain from low-threshold mechanical stimuli, such as that producing a faint sensation of touch in a human, within about 1 week following surgery. This sensitivity to normally non-painful touch is called “tactile allodynia” and lasts for at least two months. The response includes lifting the affected hindpaw to escape from the stimulus, licking the paw and holding it in the air for many seconds. None of these responses is normally seen in the control group.
Rats are anesthetized before surgery. The surgical site is shaved and prepared either with betadine or Novacaine. Incision is made from the thoracic vertebra XIII down toward the sacrum. Muscle tissue is separated from the spinal vertebra (left side) at the L4-S2 levels. The L6 vertebra is located and the transyerse process is carefully removed with a small rongeur to expose the L4-L6 spinal nerves. The L5 and L6 spinal nerves are isolated and tightly ligated with 6-0 silk thread. The same procedure is done on the right side as a control, except no ligation of the spinal nerves is performed. A complete hemostasis is confirmed, then the wounds are sutured. A small amount of antibiotic ointment is applied to the incised area, and the rat is transferred to the recovery plastic cage under a regulated heat-temperature lamp. On the day of the experiment, at least seven days after the surgery, typically six rats per test group are administered the test drugs by intraperitoneal (i.p.) injection or oral gavage. For i.p. injection, the compounds are formulated in approximately 10 to 50% DMSO and given in a volume of 1 ml/kg body weight.
Tactile allodynia is measured prior to and 30 minutes after drug administration using von Frey hairs that are a series of fine hairs with incremental differences in stiffness. Rats are placed in a plastic cage with a wire mesh bottom and allowed to acclimate for approximately 30 minutes. The von Frey hairs are applied perpendicularly through the mesh to the mid-plantar region of the rats' hindpaw with sufficient force to cause slight buckling and held for 6-8 seconds. The applied force has been calculated to range from 0.41 to 15.1 grams. If the paw is sharply withdrawn, it is considered a positive response. A normal animal will not respond to stimuli in this range, but a surgically ligated paw will be withdrawn in response to a 1-2 gram hair. The 50% paw withdrawal threshold is determined using the method of Dixon, […]. The post-drug threshold is compared to the pre-drug threshold and the percent reversal of tactile sensitivity is calculated based on a normal threshold of 15.1 grams. The results are expressed in per cent (%) MPE, where the MPE value reflects the percentage reversal of pain threshold to that of a normal animal (100%). Table 4 below indicates results of this test with Compounds 8, 34 and 40 of the invention, administered i.p., in intrathecal and oral doses.

alpha2A receptor = molecular target: T3, alpha2A receptor (Homo sapiens, UniProt P08913); test: Receptor Selection and Amplification Technology (RSAT) assay, alpha2A; format: cell-based; details: NIH-3T3 cells; for EC50: NA = not active at concentrations less than 10 micromolar, read-out: RSAT EC50 (nM) Alpha 2A; for fraction of activity of the standard (brimonidine) attained, Alpha 2A (number in parenthesis): ratio of maximal effect to that of standard full agonist brimonidine
T3 construct: expressed in transfected cells; host or cells: NIH-3T3
T3 sequence (P08913 1-465): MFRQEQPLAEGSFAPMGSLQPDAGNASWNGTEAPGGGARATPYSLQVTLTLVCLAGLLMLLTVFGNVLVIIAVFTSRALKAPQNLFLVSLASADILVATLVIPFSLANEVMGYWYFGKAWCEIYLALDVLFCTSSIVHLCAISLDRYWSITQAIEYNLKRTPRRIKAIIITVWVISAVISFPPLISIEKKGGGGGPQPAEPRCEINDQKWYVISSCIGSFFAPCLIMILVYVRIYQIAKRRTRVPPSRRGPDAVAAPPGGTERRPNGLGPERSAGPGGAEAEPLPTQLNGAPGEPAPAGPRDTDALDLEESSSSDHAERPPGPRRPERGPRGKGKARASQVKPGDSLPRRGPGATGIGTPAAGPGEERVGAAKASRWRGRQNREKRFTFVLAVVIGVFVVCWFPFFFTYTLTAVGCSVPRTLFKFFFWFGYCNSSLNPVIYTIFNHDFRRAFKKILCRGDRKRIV
Excerpt: as §1, §2, §3
The results of the RSAT assay with several exemplary compounds of the invention are disclosed in Table 3. […] NA stands for “not active” at concentrations less than 10 micromolar. […]

male Sprague-Dawley rats = test: Sedative activity (exploratory behavior after i.p. injection); format: in vivo; details: rat, intraperitoneally, up to a dose of 300 μg/kg
Experimental: To test sedation, six male Sprague-Dawley rats are given up to 3 mg/kg of the test compound in a saline or DMSO vehicle by intraperitoneal injection (i.p.). Sedation is graded 30 minutes following administration of the drug by monitoring locomotor skills as follows.
The Sprague-Dawley rats are weighed and 1 ml/kg body weight of an appropriate concentration (ie. 3 mg/ml for a final dose of 3 mg/kg) drug solution is injected intraperitoneally. Typically the test compound is formulated in approximately 10 to 50% DMSO. The results are compared to controls that are injected with 1 ml/kg saline or 10 to 50% DMSO. Rat activity is then determined 30 minutes after injection of the drug solution. Rats are placed in a dark covered chamber and a digicom analyzer (Omnitech Electronic) quantitates their exploratory behavior for a five-minute period. The machine records each time the rat interrupts an array of 32 photoelectric beams in the X and Y orientation.

Structure (SMILES): CCC1=CCCCC1NC(=S)NCCO (stereo not drawn) [Compound 34, 1-(2-Hydroxy-ethyl)-3-(2-ethyl-cyclohex-2-enyl)-thiourea]
- EC50 (alpha2C receptor): 59 nM
- fraction of activity of the standard (brimonidine) attained, Alpha 2C (number in parenthesis) (alpha2C receptor): (0.62)
- EC50 (alpha2B receptor): 11 nM
- fraction of activity of the standard (brimonidine) attained, Alpha 2B (number in parenthesis) (alpha2B receptor): (0.88)
- % MPE ([1]; IP dose 10 μg/kg): 0.4 ± 1.0 % MPE
- % MPE ([1]; IP dose 30 μg/kg): 48 ± 6.1 % MPE
- % MPE ([1]; IP dose 100 μg/kg): 66 ± 11 % MPE
- % MPE ([1]; IP dose 300 μg/kg): 96 ± 3.7 % MPE

Structure (SMILES): CC[C@H]1CCCC[C@@H]1NC(=S)NCCO (relative stereo) [Compound 37, 1-(trans-2-Ethyl-cyclohexyl)-3-(2-hydroxy-ethyl)-thiourea]
- EC50 (alpha2A receptor): 14 nM
- fraction of activity of the standard (brimonidine) attained, Alpha 2A (number in parenthesis) (alpha2A receptor): (0.4)
- EC50 (alpha2C receptor): 106 nM
- fraction of activity of the standard (brimonidine) attained, Alpha 2C (number in parenthesis) (alpha2C receptor): (0.4)
- EC50 (alpha2B receptor): 2 nM
- fraction of activity of the standard (brimonidine) attained, Alpha 2B (number in parenthesis) (alpha2B receptor): (0.93)

Structure (SMILES): CC1=C(C)C(NC(=S)NCCO)CC1 (stereo not drawn) [Compound 15, 1-(2,3-Dimethyl-cyclopent-2-enyl)-3-(2-hydroxy-ethyl)-thiourea]
- EC50 (alpha2A receptor): 515 nM
- fraction of activity of the standard (brimonidine) attained, Alpha 2A (number in parenthesis) (alpha2A receptor): (0.4)
- EC50 (alpha2C receptor): 197 nM
- fraction of activity of the standard (brimonidine) attained, Alpha 2C (number in parenthesis) (alpha2C receptor): (0.4)
- EC50 (alpha2B receptor): 5 nM
- fraction of activity of the standard (brimonidine) attained, Alpha 2B (number in parenthesis) (alpha2B receptor): (1.08)

Structure (SMILES): C[C@H]1CC[C@H](NC(=S)NCCO)CC1 [Compound 40, 1-(2-Hydroxy-ethyl)-3-(4-methyl-cyclohexyl)-thiourea]
- sedative effect (male Sprague-Dawley rats): no sedative effect
- EC50 (alpha2B receptor): 57 nM
- fraction of activity of the standard (brimonidine) attained, Alpha 2B (number in parenthesis) (alpha2B receptor): (0.62)
- % MPE ([1]; IP dose 10 μg/kg): 0.1 ± 1.8 % MPE
- % MPE ([1]; IP dose 30 μg/kg): 42 ± 9.2 % MPE
- % MPE ([1]; IP dose 100 μg/kg): 46 ± 7.1 % MPE
- % MPE ([1]; IP dose 300 μg/kg): 77 ± 8.0 % MPE
- % MPE ([1]; IP dose 1000 μg/kg): 83 ± 7.0 % MPE
- % MPE ([1]; IP dose 3000 μg/kg): 90 ± 6.1 % MPE
- % MPE ([1]; Oral dose 1000 μg/kg): 80 ± 6.1 % MPE
